In patent US20120225852A1, “USE OF STEROID COMPOUNDS” (priority 2009, published 2012):

Assays:
[1] = tested on: MOG peptide-induced experimental autoimmune encephalomyelitis (EAE); assay: MOG peptide-induced EAE, treatment from the day of EAE induction; assay type: in vivo, C57BL/6 mice
Text: EAE is an autoimmune condition of the central nervous system (CNS) and results from infiltration of the central nervous system by destructive autoreactive T lymphocytes and subsequent demyelination and axonal and neuronal degeneration.
Acute EAE was induced in C57BL/6 mice by immunizing them against the pathogenic myelin oligodendrocyte glycoprotein (MOG) peptide (amino acids 35-55). […] Mice were monitored daily in a blinded fashion for clinical symptoms (paralysis). Tissues (brain, spinal cord, DLNs) were collected in order to perform histological evaluation (staining with H&E on brain and spinal cord sections) and ex vivo cultures for measurement of T cell responses and cytokine release.

[2] = tested on: ongoing EAE in recipient mice; assay: Adoptive transfer of DLN cells from treated EAE donors into recipients with ongoing EAE; assay type: in vivo
Text: The donor DLN cells were obtained on day 17, which is the peak of disease for control mice. This protection was observed until day 28-30 when the mice were euthanized.

[3] = 2 mg/mouse i.p. daily from EAE induction, in comparison to the control, FIG. 7

For `C[C@]12CC[C@H](O)CC1=CC[C@@H]1[C@@H]2CC[C@]2(C)C(=O)CC[C@@H]12` [DHEA, dehydroepiandrosterone], the degree of paralysis ([1]; 2 mg/mouse i.p. daily from EAE induction until day 26, vs PBS) was “decreased”, the clinical course ([1]; 2 mg/mouse i.p. daily from EAE induction until day 26, FIG. 6) was “improvement” and the mean maximum score ([1]; 2 mg/mouse i.p. daily from EAE induction until day 26, FIG. 7) was “decrease”. The incidence of disease [1, 3] was “low incidence”, the onset of disease [1, 3] was “delayed onset” and the “inflammation in the spinal cord” value ([1]; 2 mg/mouse i.p. daily from EAE induction, H&E, FIG. 8) was “decreased inflammation”. For the same compound, the “protection against MOG peptide-induced EAE” value ([1]; overall conclusion, treatment from EAE induction) was “conferred protection”, the recovery of recipients ([2]; DLN cell transfer, vs PBS-treated donors, FIG. 24) was “rapid recovery” and the “mean maximum disease score” value ([2]; DLN cell transfer, vs PBS-treated donors, FIG. 25) was “significant reduction”. For the same compound, the “EAE development in recipients” value ([2]; DLN cells of donors treated days 12-17, vs DLN cells from PBS-treated donors, FIG. 24) was “confer suppression”, the “ex vivo proliferation to MOG35-55” value ([2]; DLN cells of recipients, FIG. 26a) was “significantly decreased” and the “levels of supernatant IFN-γ” value ([2]; DLN cells of recipients, FIG. 26b) was “decreased levels”. For the same compound, the “levels of supernatant IL-17” value ([2]; DLN cells of recipients, FIG. 26c) was “decreased levels”, the “recruitment of CD11c+ dendritic cells” value ([2]; draining lymph nodes of recipients, FIG. 27a) was “substantially decreased” and the “recruitment of IL-17 secreting T cells” value ([2]; draining lymph nodes of recipients, FIG. 27b) was “substantially decreased”. The “recruitment of CD4+ Foxp3+ regulatory T cells” value ([2]; draining lymph nodes of recipients, FIG. 27c) was “increased”.
